According to patent US11466028B2, “Fused 1,4-oxazepines as BET protein degraders” (THE REGENTS OF THE UNIVERSITY OF MICHIGAN, priority 2016, dated 2022):

How the values were obtained:
Assay type in all cases: cell-based
MDA-MB-231 = assay: CellTiter-Glo cell growth inhibition, MDA-MB-231; conditions: Homo sapiens, MDA-MB-231, 96 h, 4 days, Table 4
Protocol: (§1) Cell growth inhibitory activity of representative Compounds of the Disclosure was determined using the CellTiter-Glo® Luminescent Cell Viability Assay. Cells were seeded in 384-well white opaque cell culture plates at a density of 2,000 cells/well with serially diluted compounds and incubated at 37° C. in an atmosphere of 95% air and 5% CO2 for 4 days. Cell viability was determined using the CellTiter-Glo® Luminescent Cell Viability Assay Kit (Promega, Madison, Wis.) according to the manufacture's instruction. Briefly, a volume of CellTiter-Glo® Reagent equal to the volume of cell culture medium was added to each well, and then the plates were incubated at room temperature for 10-20 minutes. The luminescent signal was measured using a Tecan Infinite M1000 multimode microplate reader (Tecan, Morrisville, N.C.). The half maximal inhibitory concentration (IC50) was calculated using the GraphPad Prism 5 software (GraphPad Software, La Jolla, Calif.).

MOLM-13 = assay: CellTiter-Glo cell growth inhibition, MOLM-13; conditions: Homo sapiens, MOLM-13, 96 h, 4 days, Table 4, read-out: MOLM-13 IC50
Protocol: as §1
(§2) Cpd. Nos. 18 and 19 were tested in various leukemia cell lines using the CellTiter-Glo® Luminescent Cell Viability Assay as described in Example 35.

RS4;11 = assay: CellTiter-Glo cell growth inhibition, RS4;11; conditions: Homo sapiens, RS4-11, 96 h, 4 days, Table 4, read-out: RS-4, 11 IC50
Protocol: as §1, §2

SMILES | IC50 (MDA-MB-231) | IC50 (MOLM-13) | IC50 (RS4;11)
Cc1nnc2n1-c1sc(C#Cc3ccc(CCCCNc4cc(F)cc5c4CN(C4CCC(=O)NC4=O)C5=O)nc3)c(Cc3ccccc3)c1COC2 (stereo not drawn) [Cpd. No. 47, 3-(4-((4-(5-((3-benzyl-9-methyl-4H,6H-thieno[2,3-e][1,2,4]triazolo[3,4-c][1,4]oxazepin-2-yl)ethynyl)pyridin-2-yl)butyl)amino)-6-fluoro-1-oxoisoindolin-2-yl)piperidine-2,6-dione] | 2.3 nM | 1.8 nM | < 0.1 nM
Cc1nnc2n1-c1sc(C#Cc3cnn(CCCNc4cccc5c4C(=O)N(C4CCC(=O)NC4=O)C5=O)c3)c(Cc3ccccc3)c1CO[C@H]2C (stereo partly drawn) [Cpd. No. 10, 4-((3-(4-(((S)-3-benzyl-6,9-dimethyl-4H,6H-thieno[2,3-e][1,2,4]triazolo[3,4-c][1,4]oxazepin-2-yl)ethynyl)-1H-pyrazol-1-yl)propyl)amino)-2-(2,6-dioxopiperidin-3-yl)isoindoline-1,3-dione] | 34 nM | 2.6 nM | 
Cc1nnc2n1-c1sc(C#Cc3cnc(CCCC#Cc4cccc5c4C(=O)N(C4CCC(=O)NC4=O)C5=O)[nH]3)c(Cc3ccccc3)c1CO[C@H]2C (stereo partly drawn) [Cpd. No. 12, 4-(5-(5-(((S)-3-benzyl-6,9-dimethyl-4H,6H-thieno[2,3-e][1,2,4]triazolo[3,4-c][1,4]oxazepin-2-yl)ethynyl)-1H-imidazol-2-yl)pent-1-yn-1-yl)-2-(2,6-dioxopiperidin-3-yl)isoindoline-1,3-dione] | > 1000 nM | > 1000 nM | > 1000 nM
Cc1nnc2n1-c1sc(C#Cc3cn(CCCC#Cc4cccc5c4C(=O)N(C4CCC(=O)NC4=O)C5=O)cn3)c(Cc3ccccc3)c1CO[C@H]2C (stereo partly drawn) [compound 21, 4-(5-(4-(((S)-3-benzyl-6,9-dimethyl-4H,6H-thieno[2,3-e][1,2,4]triazolo[3,4-c][1,4]oxazepin-2-yl)ethynyl)-1H-imidazol-1-yl)pent-1-yn-1-yl)-2-(2,6-dioxopiperidin-3-yl)isoindoline-1,3-dione] | 60 nM | 15.7 nM | 3 nM
Cc1nnc2n1-c1sc(C#Cc3cn(CCCC#Cc4cccc5c4CN(C4CCC(=O)NC4=O)C5=O)cn3)c(Cc3ccccc3)c1COC2 (stereo not drawn) [Cpd. No. 50, 3-(4-(5-(4-((3-benzyl-9-methyl-4H,6H-thieno[2,3-e][1,2,4]triazolo[3,4-c][1,4]oxazepin-2-yl)ethynyl)-1H-imidazol-1-yl)pent-1-yn-1-yl)-1-oxoisoindolin-2-yl)piperidine-2,6-dione] | > 100 nM | > 10 nM | > 1 nM
Cc1nnc2n1-c1sc(C#Cc3cnn(CCCC#Cc4cccc5c4C(=O)N(C4CCC(=O)NC4=O)C5=O)c3)c(Cc3ccccc3)c1CO[C@H]2C (stereo partly drawn) [Cpd. No. 14, 4-(5-(4-(((S)-3-benzyl-6,9-dimethyl-4H,6H-thieno[2,3-e][1,2,4]triazolo[3,4-c][1,4]oxazepin-2-yl)ethynyl)-1H-pyrazol-1-yl)pent-1-yn-1-yl)-2-(2,6-dioxopiperidin-3-yl)isoindoline-1,3-dione] | 9.3 nM | 8.7 nM | 0.43 nM
Cc1nnc2n1-c1sc(C#CCOCCOCCOc3cccc4c3C(=O)N(C3CCC(=O)NC3=O)C4=O)c(Cc3ccccc3)c1CO[C@H]2C (stereo partly drawn) [Cpd. No. 2, 4-(2-(2-((3-((S)-3-benzyl-6,9-dimethyl-4H,6H-thieno-[2,3-e][1,2,4]triazolo[3,4-c][1,4]oxazepin-2-yl)prop-2-yn-1-yl)oxy)ethoxy)ethoxy)-2-(2,6-dioxopiperidin-3-yl)isoindoline-1,3-dione] | 223 nM | 34.6 nM | 
Cc1nnc2n1-c1sc(C#CCOCCOCCNc3cccc4c3C(=O)N(C3CCC(=O)NC3=O)C4=O)c(Cc3ccccc3)c1CO[C@H]2C (stereo partly drawn) [Cpd. No. 3, 4-((2-(2-((3-((S)-3-benzyl-6,9-dimethyl-4H,6H-thieno[2,3-e][1,2,4]triazolo[3,4-c][1,4]oxazepin-2-yl)prop-2-yn-1-yl)oxy)ethoxy)ethyl)amino)-2-(2,6-dioxopiperidin-3-yl)isoindoline-1,3-dione] | 49 nM | 2.6 nM | 
Cc1nnc2n1-c1sc(C#CCOCCOCCOCCNc3cccc4c3C(=O)N(C3CCC(=O)NC3=O)C4=O)c(Cc3ccccc3)c1CO[C@H]2C (stereo partly drawn) [Cpd. No. 4, 4-((2-(2-(2-((3-((S)-3-benzyl-6,9-dimethyl-4H,6H-thieno[2,3-e][1,2,4]triazolo[3,4-c][1,4]oxazepin-2-yl)prop-2-yn-1-yl)oxy)ethoxy)ethoxy)ethyl)amino)-2-(2,6-dioxopiperidin-3-yl)isoindoline-1,3-dione] | 12.8 nM | 0.8 nM | 
Cc1nnc2n1-c1sc(C#Cc3cnn(CCOCCNc4cccc5c4C(=O)N(C4CCC(=O)NC4=O)C5=O)c3)c(Cc3ccccc3)c1CO[C@H]2C (stereo partly drawn) [Cpd. No. 9, 4-((2-(2-(4-(((S)-3-benzyl-6,9-dimethyl-4H,6H-thieno[2,3-e][1,2,4]triazolo[3,4-c][1,4]oxazepin-2-yl)ethynyl)-1H-pyrazol-1-yl)ethoxy)ethyl)amino)-2-(2,6-dioxopiperidin-3-yl)isoindoline-1,3-dione] | 4.7 nM | 1.1 nM | 
Cc1nnc2n1-c1sc(C#Cc3cnn(CCNc4cccc5c4C(=O)N(C4CCC(=O)NC4=O)C5=O)c3)c(Cc3ccccc3)c1CO[C@H]2C (stereo partly drawn) [Cpd. No. 6, 4-((2-(4-(((S)-3-benzyl-6,9-dimethyl-4H,6H-thieno[2,3-e][1,2,4]triazolo[3,4-c][1,4]oxazepin-2-yl)ethynyl)-1H-pyrazol-1-yl)ethyl)amino)-2-(2,6-dioxopiperidin-3-yl)isoindoline-1,3-dione] | 64 nM | 60 nM | 
Cc1nnc2n1-c1sc(C#CCOCCOCCOCCOCCNc3cccc4c3C(=O)N(C3CCC(=O)NC3=O)C4=O)c(Cc3ccccc3)c1CO[C@H]2C (stereo partly drawn) [Cpd. No. 5, 4-((15-((S)-3-benzyl-6,9-dimethyl-4H,6H-thieno[2,3-e][1,2,4]triazolo[3,4-c][1,4]oxazepin-2-yl)-3,6,9,12-tetraoxapentadec-14-yn-1-yl)amino)-2-(2,6-dioxopiperidin-3-yl)isoindoline-1,3-dione] | 6.1 nM | 0.7 nM | 

Further compounds by falling IC50 (MDA-MB-231), results first:

IC50 (MDA-MB-231) | IC50 (MOLM-13) | IC50 (RS4;11) | SMILES
1700 nM | 804 nM |  | Cc1nnc2n1-c1sc(C#CCOCCNc3cccc4c3C(=O)N(C3CCC(=O)NC3=O)C4=O)c(Cc3ccccc3)c1CO[C@H]2C (stereo partly drawn) [Cpd. No. 1, 4-((2-((3-((S)-3-benzyl-6,9-dimethyl-4H,6H-thieno[2,3-e][1,2,4]triazolo[3,4-c][1,4]oxazepin-2-yl)prop-2-yn-1-yl)oxy)ethyl)amino)-2-(2,6-dioxopiperidin-3-yl) isoindoline-1,3-dione]
1490 nM | 118 nM |  | Cc1nnc2n1-c1sc(C#Cc3ccc(CNc4cccc5c4C(=O)N(C4CCC(=O)NC4=O)C5=O)nc3)c(Cc3ccccc3)c1CO[C@H]2C (stereo partly drawn) [Cpd. No. 8, 4-(((5-(((S)-3-benzyl-6,9-dimethyl-4H,6H-thieno[2,3-e][1,2,4]triazolo[3,4-c][1,4]oxazepin-2-yl)ethynyl)pyridin-2-yl)methyl)amino)-2-(2,6-dioxopiperidin-3-yl) isoindoline-1,3-dione]
58 nM | 20 nM | 1.8 nM | Cc1nnc2n1-c1sc(C#Cc3cn(CCCCNc4cccc5c4CN(C4CCC(=O)NC4=O)C5=O)cn3)c(Cc3ccccc3)c1CO[C@H]2C (stereo partly drawn) [Cpd. No. 13, 3-(4-((4-(4-(((S)-3-benzyl-6,9-dimethyl-4H,6H-thieno[2,3-e][1,2,4]triazolo[3,4-c][1,4]oxazepin-2-yl)ethynyl)-1H-imidazol-1-yl)butyl)amino)-1-oxoisoindolin-2-yl)piperidine-2,6-dione]
16 nM | 3.8 nM | 0.7 nM | Cc1nnc2n1-c1sc(C#Cc3cn(CCCC#Cc4cccc5c4CN(C4CCC(=O)NC4=O)C5=O)cn3)c(Cc3ccccc3)c1CO[C@H]2C (stereo partly drawn) [Cpd. No. 20, 3-(4-(5-(4-(((S)-3-benzyl-6,9-dimethyl-4H,6H-thieno[2,3-e][1,2,4]triazolo[3,4-c][1,4]oxazepin-2-yl)ethynyl)-1H-imidazol-1-yl)pent-1-yn-1-yl)-1-oxoisoindolin-2-yl)piperidine-2,6-dione]
5.5 nM | 9.6 nM | 0.56 nM | Cc1nnc2n1-c1sc(C#Cc3cnn(CCCC#Cc4cccc5c4C(=O)N(C4CCC(=O)NC4=O)C5=O)c3)c(Cc3ccccc3)c1COC2 (stereo not drawn) [Cpd. No. 49, 4-(5-(4-((3-benzyl-9-methyl-4H,6H-thieno[2,3-e][1,2,4]triazolo[3,4-c][1,4]oxazepin-2-yl)ethynyl)-1H-pyrazol-1-yl)pent-1-yn-1-yl)-2-(2,6-dioxopiperidin-3-yl)isoindoline-1,3-dione]
2.4 nM | 2.8 nM | < 0.1 nM | Cc1nnc2n1-c1sc(C#Cc3ccc(CCCCNc4cccc5c4CN(C4CCC(=O)NC4=O)C5=O)nc3)c(Cc3ccccc3)c1COC2 (stereo not drawn) [Cpd. No. 46, 3-(4-((4-(5-((3-benzyl-9-methyl-4H,6H-thieno[2,3-e][1,2,4]triazolo[3,4-c][1,4]oxazepin-2-yl)ethynyl)pyridin-2-yl)butyl)amino)-1-oxoisoindolin-2-yl) piperidine-2,6-dione]
